Source: ChEMBL document CHEMBL3407474, “Structural insight of glitazone for hepato-toxicity: Resolving mystery by PASS” (Bioorg Med Chem Lett, 2015)
Calls of active or inactive are those of the source. The rule behind the calls is not given here.

What was measured:
HepG2 [1] = assay: Induction of p53 protein level in human HepG2 cells at 50 uM upto 24 hrs by immunoblot analysis; assay type: functional, cell-based
HepG2 [2] = assay: Induction of p53 protein level in human HepG2 cells at 50 uM by immunoblot analysis; assay type: functional, cell-based; conditions: TDE = time-dependent effect

CCc1ccc(CCOc2ccc(CC3SC(=O)NC3=O)cc2)nc1 (centres undefined)
Activity (HepG2 [1]): inactive

Cc1c(C)c2c(c(C)c1O)CCC(C)(COc1ccc(CC3SC(=O)NC3=O)cc1)O2 (centres undefined)
Activity (HepG2 [1]): Active
Activity (HepG2 [2]): tde

CN(CCOc1ccc(CC2SC(=O)NC2=O)cc1)c1ccccn1 (centres undefined)
Activity (HepG2 [1]): inactive
